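Five compound concentrations were applied to cells in 96-well plates for 48 hours; endpoints were derived by simple linear interpolation of the resulting dose-response curve. The concentration for 50% growth inhibition is given as GI50.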 The source made the active and inactive calls. Rule as the data show it: active = GI50 up to about 1.1 µM and inactive = higher.
Tests used:
Experiment in all cases: DTP human tumour cell line panel, 48 h
CAKI-1 = test system: CAKI-1
DU-145 = test system: DU-145
HOP-62 = test system: HOP-62
HOP-92 = test system: HOP-92
HT-29 = test system: HT-29
Hs-578T = test system: Hs-578T
KM12 = test system: KM12
M14 = test system: M14
NCI-H226 = test system: NCI-H226
NCI-H23 = test system: NCI-H23
NCI-H522 = test system: NCI-H522
OVCAR-5 = test system: OVCAR-5
PC-3 = test system: PC-3
RXF 393 = test system: RXF 393
SF-268 = test system: SF-268
SW-620 = test system: SW-620
U-251 = test system: U-251
UACC-62 = test system: UACC-62
HCC 2998 = test system: HCC 2998

Measured: GI50

NNc1nncn1N
inactive: CAKI-1 > 100 µM | DU-145 > 55.2 µM | HOP-62 > 100 µM | HOP-92 > 100 µM | HT-29 > 100 µM | Hs-578T > 100 µM | KM12 > 100 µM | M14 > 100 µM | NCI-H226 > 100 µM | NCI-H23 > 51.2 µM | NCI-H522 > 93.1 µM | OVCAR-5 > 100 µM | PC-3 > 100 µM | RXF 393 > 100 µM | SF-268 > 100 µM | SW-620 > 57.1 µM | U-251 > 100 µM | UACC-62 > 100 µM

COC(CN(C)C(=S)Nc1cccc2ccccc12)OC
inactive: CAKI-1 > 10 µM | DU-145 > 10 µM | HCC 2998 > 10 µM | HOP-62 > 10 µM | HT-29 > 10 µM | Hs-578T > 10 µM | KM12 > 10 µM | M14 > 10 µM | NCI-H226 > 10 µM | NCI-H23 > 10 µM | NCI-H522 > 10 µM | PC-3 > 10 µM | RXF 393 > 10 µM | SF-268 > 10 µM | SW-620 > 10 µM | U-251 > 10 µM | UACC-62 > 10 µM

O=c1[nH]c2ccc(O)cc2o1
inactive: CAKI-1 > 100 µM | DU-145 > 100 µM | HCC 2998 2.56 µM | HOP-62 > 100 µM | HT-29 > 100 µM | Hs-578T > 100 µM | KM12 > 100 µM | M14 > 100 µM | NCI-H226 > 100 µM | NCI-H23 > 100 µM | NCI-H522 > 100 µM | OVCAR-5 > 100 µM | PC-3 > 100 µM | RXF 393 2.49 µM | SF-268 > 100 µM | SW-620 > 100 µM | U-251 > 100 µM | UACC-62 > 100 µM

O=C(N/N=C1/C(=O)c2c3ccccc3cc3cccc1c23)c1ccccc1
inactive: CAKI-1 26.4 µM | DU-145 4.49 µM | HOP-62 19.5 µM | HOP-92 51.9 µM | HT-29 30.2 µM | Hs-578T 40.6 µM | KM12 16.7 µM | M14 48.4 µM | NCI-H226 > 43.8 µM | NCI-H23 36.3 µM | NCI-H522 32.7 µM | OVCAR-5 34.3 µM | PC-3 26.7 µM | RXF 393 22.1 µM | SF-268 30 µM | SW-620 > 100 µM | U-251 31.6 µM | UACC-62 26.8 µM

CC(C)=NNc1cnnc2ccc([N+](=O)[O-])cc12
inactive: CAKI-1 52 µM | DU-145 > 100 µM | HOP-92 > 100 µM | HT-29 > 100 µM | Hs-578T > 100 µM | KM12 > 100 µM | M14 78 µM | NCI-H226 > 100 µM | NCI-H23 > 100 µM | NCI-H522 15.5 µM | OVCAR-5 > 100 µM | PC-3 > 100 µM | RXF 393 > 100 µM | SF-268 > 100 µM | SW-620 > 100 µM | U-251 > 100 µM

O=[N+]([O-])c1ccc(/C=C(/c2ccc([N+](=O)[O-])o2)S(=O)(=O)c2ccccc2)o1
inactive: CAKI-1 18.5 µM | DU-145 14.8 µM | HOP-62 17.8 µM | HOP-92 12 µM | HT-29 4.49 µM | Hs-578T 15.4 µM | KM12 17.7 µM | M14 11.1 µM | NCI-H226 1.42 µM | NCI-H23 19.7 µM | NCI-H522 1.93 µM | OVCAR-5 18.6 µM | PC-3 16.4 µM | RXF 393 25.1 µM | SF-268 15.6 µM | SW-620 2.26 µM | U-251 15.9 µM | UACC-62 6.17 µM

From ChEMBL document CHEMBL1201862, “PubChem BioAssay data set” (2004)
